Measurements published in patent US20070037882A1, “Remedy for cerebral neurodegenerative diseases using ppar agonist” (Astellas Pharma Inc., priority 2003, published 2007).

Experiments:
SH-SY5Y cells [1] = assay: MPP+-induced cellular death model, apoptosis by caspase-3/7 assay; assay type: cell-based, human; settings: for Caspase 3/7 activity: MPP+ + (3 mM), 3 h
Protocol: (§1) SH-SY5Y cells were spread on a 96-well plate (70,000 cell/well in 100 μl DMEM low glucose 10% fetal bovine serum) for overnight culturing, from which the culture medium was removed with an aspirator. Then, DMEM without serum was added at 50 μl/well. […] 2 hours later, DMEM without serum containing 18 mM MPP^+ was added at 20 μl/well. (MPP^+ to a final 3 mM concentration.) (For control, DMEM without serum alone was added.)
(§2) 3 hours later, the caspase-3/7 activity was assayed with Apo-One homogenous Caspase-3/7 assay kit (Promega).

SH-SY5Y cells [2] = assay: MPP+-induced cellular death model, viable cells by MTT assay; assay type: cell-based, human; settings: for MTT assay A490: MPP+ + (3 mM), 24 h
Protocol: as §1, with “concentration)” for “concentration.)”, “(For a” for “(For”, “added).” for “added.)”
24 hours later, cell growth activity was assayed by measuring the absorbance at 490 nm, using Celltiter 96 aqueous one solution cell proliferation assay kit (Promega).
In the assay system, MPP^+ as an MPTP metabolite was added to a neuroblastoma SH-SY5Y, to inhibit the mitochondrial complex I to cause the generation of active oxygen and the inhibition of ATP synthesis, to induce cellular death. It is said that in the murine MPTP model commonly used as a model of Parkinson's disease, MPTP passing through the blood brain barrier is metabolized into MPP^+, which exerts toxicity specific to murine nigra cell to induce nerve detachment. Therefore, the assay system can be said as an in vitro assay system mimicking the murine MPTP model.

SH-SY5Y cells [3] = assay: MPP+-induced cellular death model, dead cells by LDH assay; assay type: cell-based, human; settings: for LDH release A490: MPP+ + (3 mM), 24 h
Protocol: as §1, with “concentration)” for “concentration.)”, “(For a” for “(For”
24 hours later, the dead cell count was calculated on the basis of the LDH activity assayed with a cytotoxicity detection kit (Roche). […] The results reveal that the PPARδ agonists are effective on the suppression of MPP^+-induced cellular death.

SH-SY5Y cells [4] = assay: Thapsigargin-induced cellular death model, apoptosis by caspase-3/7 assay; assay type: cell-based, human; settings: for Caspase 3/7 activity: thapsigargin + (100 nM), 3 h
SH-SY5Y cells [5] = assay: Staurosporine-induced cellular death model, apoptosis by caspase-3/7 assay; assay type: cell-based, human; settings: for Caspase 3/7 activity: staurosporine + (150 nM), 3 h
Protocol: as §1, with “900 nM staurosporine” for “18 mM MPP^+”, “(Staurosporine” for “(MPP^+”, “150 nM concentration)” for “3 mM concentration.)”, “(For a” for “(For”, “added).” for “added.)”
as §2

SH-SY5Y cells [6] = assay: Staurosporine-induced cellular death model, dead cells by LDH assay; assay type: cell-based, human; settings: staurosporine + (150 nM), 24 h
Protocol: SH-SY5Y cells were plated on a 96-well plate (70,000 cell/well in 100 μl DMEM low glucose 10% fetal bovine serum) for overnight culturing, from which the culture medium was removed with an aspirator. Then, DMEM without serum was added at 50 μl/well. […] 2 hours later, DMEM without serum containing 900 nM staurosporine was added at 20 μl/well. (Staurosporine to a final 150 nM concentration) (For a control, DMEM without serum alone was added.) 24 hours later, LDH activity was assayed by measuring the absorbance at 490 nm, using Cytotoxicity detection kit (Roche). […] An apparent correlation is observed with the results of viable cells as determined by the MTT assay in Example 9.

SH-SY5Y cells [7] = assay: Thapsigargin-induced cellular death model, viable cells by MTT assay; assay type: cell-based, human; settings: for MTT assay A490: thapsigargin + (100 nM), 24 h
Protocol: SH-SY5Y cells were plated on a 96-well plate (70,000 cell/well in 100 μl DMEM low glucose 10% fetal bovine serum) for overnight culturing, from which the culture medium was removed with an aspirator. Then, DMEM without serum was added at 50 μl/well. […] 2 hours later, DMEM without serum containing 600 nM thapsigargin was added at 20 μl/well. (Thapsigargin to a final 100 nM concentration) (For a control, DMEM without serum alone was added.) 24 hours later, the viable cell count was calculated from the absorbance at 490 nm, using Celltiter 96 Aqueous one solution cell proliferaion assay kit (Promega).

[8] = system: murine MPTP Parkinson's model; assay: Murine MPTP Parkinson's model, striate body DA and metabolites; assay type: in vivo, mice; settings: for DA content per wet weight of striate body / DOPAC content per wet weight of striate body / HVA content per wet weight of striate body: MPTP +, 4 days after MPTP

In the case of Cc1cc(SCc2sc(-c3ccc(C(F)(F)F)cc3)nc2C)ccc1OCC(=O)O [GW501516], the “suppression of caspase-3/7 activity (in words)” value (SH-SY5Y cells [1]; SH-SY5Y, MPP+) is reported as “suppress the activity of caspase-3/7 in a concentration-dependent manner”, the “Caspase 3/7 activity” value (SH-SY5Y cells [1]; compound 0.1 μM) is reported as 847552 ± 36575 RFLU and the “Caspase 3/7 activity” value (SH-SY5Y cells [1]; compound 1 μM) is reported as 621059 ± 26590 RFLU. The “Caspase 3/7 activity” value (SH-SY5Y cells [1]; compound 10 μM) was 798646 ± 54365 RFLU, the “Caspase 3/7 activity” value (SH-SY5Y cells [1]; compound 100 μM) was 398604 ± 55698 RFLU and the “suppression of MPP+-induced cellular death (in words)” value (SH-SY5Y cells [2]; SH-SY5Y, MPP+) was “suppress cellular death induced by MPP^+ in a concentration-dependent manner”. For the same molecule, the “MTT assay A490” value (SH-SY5Y cells [2]; compound 0.1 μM) was 0.3361 ± 0.0073, the “MTT assay A490” value (SH-SY5Y cells [2]; compound 1 μM) was 0.3926 ± 0.0090 and the “MTT assay A490” value (SH-SY5Y cells [2]; compound 10 μM) was 0.3814 ± 0.0156. For the same molecule, the “MTT assay A490” value (SH-SY5Y cells [2]; compound 100 μM) was 0.2990 ± 0.0144, the “LDH release A490” value (SH-SY5Y cells [3]; compound 0.1 μM) was 0.3633 ± 0.0153 and the “LDH release A490” value (SH-SY5Y cells [3]; compound 1 μM) was 0.3222 ± 0.0207. The “LDH release A490” value (SH-SY5Y cells [3]; compound 10 μM) was 0.2981 ± 0.0154, the “LDH release A490” value (SH-SY5Y cells [3]; compound 100 μM) was 0.7969 ± 0.0251 and the “cytotoxicity (in words)” value (SH-SY5Y cells [3]; concentration of 100 μM, MPP+ model) was “exerted cytotoxicity”. For the same molecule, the “suppression of caspase-3/7 activity (in words)” value (SH-SY5Y cells [4]; SH-SY5Y, thapsigargin) was “suppress the activity of caspase-3/7”, the “Caspase 3/7 activity” value (SH-SY5Y cells [4]; compound 1 μM) was 237165 ± 5248 RFLU and the “Caspase 3/7 activity” value (SH-SY5Y cells [4]; compound 10 μM) was 125951 ± 6465 RFLU. The “Caspase 3/7 activity” value (SH-SY5Y cells [4]; compound 100 μM) was 421972 ± 21782 RFLU, the “suppression of caspase-3/7 activity (in words)” value (SH-SY5Y cells [5]; SH-SY5Y, staurosporine) was “suppress the activity of caspase-3/7” and the “Caspase 3/7 activity” value (SH-SY5Y cells [5]; compound 0.1 μM) was 586295 ± 18787 RFLU. For the same molecule, the “Caspase 3/7 activity” value (SH-SY5Y cells [5]; compound 1 μM) was 463943 ± 12110 RFLU, the “Caspase 3/7 activity” value (SH-SY5Y cells [5]; compound 10 μM) was 420844 ± 13962 RFLU and the “LDH release A490” value (SH-SY5Y cells [6]; compound 0.1 μM) was 0.5430 ± 0.0264. The “LDH release A490” value (SH-SY5Y cells [6]; compound 1 μM) was 0.5201 ± 0.0313, the “LDH release A490” value (SH-SY5Y cells [6]; compound 10 μM) was 0.4025 ± 0.0188 and the “suppression of thapsigargin-induced cellular death (in words)” value (SH-SY5Y cells [7]; SH-SY5Y, thapsigargin) was “suppressed cellular death induced by thapsigargin (TG) in a concentration-dependent manner”. For the same molecule, the “MTT assay A490” value (SH-SY5Y cells [7]; compound 0.1 μM) was 0.2978 ± 0.0096, the “MTT assay A490” value (SH-SY5Y cells [7]; compound 1 μM) was 0.3150 ± 0.0135 and the “MTT assay A490” value (SH-SY5Y cells [7]; compound 10 μM) was 0.3478 ± 0.0110. For the same molecule, the “MTT assay A490” value (SH-SY5Y cells [7]; compound 100 μM) was 0.2950 ± 0.0033, the “cellular toxicity (in words)” value (SH-SY5Y cells [7]; concentration of 100 μM, thapsigargin model) was “cellular toxicity of GW501516 can be observed” and the “DA content per wet weight of striate body” value ([8]; 12 μg/head/day) was 7.41 ± 1.27 ng/mg tissue. The “DOPAC content per wet weight of striate body” value ([8]; 12 μg/head/day) was 0.39 ± 0.06 ng/mg tissues, the “HVA content per wet weight of striate body” value ([8]; 12 μg/head/day) was 0.82 ± 0.08 ng/mg tissue and the “DA content per wet weight of striate body” value ([8]; 120 μg/head/day) was 8.98 ± 1.20 ng/mg tissue. The “DOPAC content per wet weight of striate body” value ([8]; 120 μg/head/day) was 0.44 ± 0.04 ng/mg tissues, the “HVA content per wet weight of striate body” value ([8]; 120 μg/head/day) was 0.90 ± 0.05 ng/mg tissue and the “action of suppressing the decrease of the contents of DA, DOPAC and HVA (in words)” value ([8]; any of the doses (12 or 120 μg/head/day)) was “greatly observed”.
